The source of these data is paper PMC10336775 (Proteins, 2022).

This experiment has as its target afRubisco (Archaeoglobus fulgidus, UniProt O28635). Put plainly: coupled NADH assay of 3PGA formed. Conditions: 2 mM RuBp, 10 mM NaHCO3, 20 mM MgCl2, pH 8.2, 65 C; carboxylase activity. It is filed as biochemical.

Sequence of afRubisco (O28635 whole entry): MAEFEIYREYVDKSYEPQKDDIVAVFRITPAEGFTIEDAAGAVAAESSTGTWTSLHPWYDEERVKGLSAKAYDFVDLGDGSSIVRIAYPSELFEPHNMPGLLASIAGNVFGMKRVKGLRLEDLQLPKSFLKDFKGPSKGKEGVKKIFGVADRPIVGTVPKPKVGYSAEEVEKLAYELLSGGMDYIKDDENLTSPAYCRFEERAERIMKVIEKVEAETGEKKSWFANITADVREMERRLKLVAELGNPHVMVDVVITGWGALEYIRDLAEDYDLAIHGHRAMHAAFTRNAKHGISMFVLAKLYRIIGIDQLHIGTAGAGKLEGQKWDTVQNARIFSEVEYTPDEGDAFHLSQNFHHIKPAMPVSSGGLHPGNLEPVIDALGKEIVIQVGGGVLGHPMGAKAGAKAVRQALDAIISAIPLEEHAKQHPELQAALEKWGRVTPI

Consider `O=C(COP(=O)(O)O)[C@H](O)[C@H](O)COP(=O)(O)O` [RuBp], for which the “coupled NADH assay of 3PGA formed (340 nm)” value is recorded as “Activated afRubisco has very low carboxylase activity at room temperature but has much higher”.
